Test results reported in patent US10131658B2, “Anti-alphavbeta1 integrin compounds and methods” (The Regents of the University of California, priority 2013, dated 2018).

Test system: αvβ1 integrin
Assay: Cell Adhesion Assay (integrin-specific adhesion, CHO cells transfected with human αv adhering to fibronectin)
Format: cell-based
Conditions: Cell Adhesion Assay
Procedure: The effects of c8 and c16 on cell adhesion mediated by α5β1, α8β1, αvβ1, αvβ3, αvβ5, αvβ6, and αvβ8 were measured using pairs of cell lines and ligands selected to isolate the effect of each individual integrin. For α5β1 we utilized the colon carcinoma cell line, SW480, plated on 0.3 μg/ml fibronectin, for α8β1, we utilized SW480 cells transfected with human α8 adhering to 1 μg/ml recombinant TGFβ1 LAP [5], for αvβ1 we used Chinese Hamster Ovary Cells (CHO cells) transfected with human αv adhering to 0.3 μg/ml fibronectin [6], for αvβ3 we used SW480 cells transfected with human β3, for αvβ5 we used wild type SW480 cells adhering to 0.1 μg/ml vitronectin. […] Cells were allowed to attach for 30-60 min at 37° C. After incubation, non-adherent cells were removed by discarding the media and spinning the plate top-side down at 500 rpm for 5 minutes. Cells were then fixed and stained with 40 ul of 0.5% Crystal violet, 1% Formaldehyde, 20% Methanol for 30 minutes and lysed with 2% Trition-X. Absorbance was measured at 595 nm in a Microplate reader. For all assays, concentration-response curves were constructed by non-linear regression analysis and IC50 values were calculated using GraphPad Prism software.
αvβ1 integrin inhibition is effective in cell adhesion assay/mouse liver fibrosis model: Inhibitors were tested in cell adhesion assay to test their potency/selectivity. A panel of cell lines and integrin ligands were developed to allow rapid examination of potency and specificity of inhibitors against all 8 integrins that recognize RGD sequences in ligands. A subset of these was used to generate the very encouraging data about 8 shown above. These cell lines were used to calculate IC50 concentrations for each inhibitor synthesized to rapidly generate structure activity information to drive subsequent modification and synthesis. Inhibitors were evaluated for showing better potency/selectivity in CCl4-induced liver fibrosis. A general inhibitor of αv integrins can reverse fibrosis in this model when administered as a continuous subcutaneous infusion (from Alzet pumps) beginning 3 weeks after CCl4 initiation. However, global inhibition of all αv integrins is likely to cause unacceptable side effects. […] As above, pumps will be inserted after 3 weeks of CCl4 treatment. Once we find small molecules that are effective, each will be further tested in the UUO model of renal fibrosis and the bleomycin model of pulmonary fibrosis. Again we will examine therapeutic rather than prophylactic efficacy by beginning treatment in each model after the onset of fibrosis.

Row | SMILES | IC50
1 | NCC(=O)Nc1ccc(C[C@H](NC(=O)[C@@H]2CCCN2S(=O)(=O)c2ccccc2)C(=O)O)cc1 [Compound 1, (S)-3-(4-(2-aminoacetamido)phenyl)-2-((S)-1-(phenylsulfonyl)pyrrolidine-2-carboxamido)propanoic acid] | 1000 to 10000 nM
2 | NCCCCC(=O)Nc1ccc(C[C@H](NC(=O)[C@@H]2CCCN2S(=O)(=O)c2ccccc2)C(=O)O)cc1 [Compound 7, (S)-3-(4-(5-aminopentanamido)phenyl)-2-((S)-1-(phenylsulfonyl)pyrrolidine-2-carboxamido)propanoic acid] | 1000 to 10000 nM
3 | O=C(CCCc1ccc2c(n1)NCCC2)Nc1ccc(C[C@H](NC(=O)[C@@H]2CCCN2S(=O)(=O)c2ccccc2)C(=O)O)cc1 [Compound 63] | 10 to 1000 nM
4 | O=C(CCCNC1=NCCN1)Nc1ccc(C[C@H](NC(=O)[C@@H]2CCCN2S(=O)(=O)c2ccccc2)C(=O)O)cc1 [Compound 87, (S)-3-(4-(4-((4,5-dihydro-1H-imidazol-2-yl)amino)butanamido)phenyl)-2-((S)-1-(phenylsulfonyl)pyrrolidine-2-carboxamido)propanoic acid] | < 10 nM
5 | N=C(N)NC(=O)CCC(=O)Nc1ccc(C[C@H](NC(=O)[C@@H]2CCCN2S(=O)(=O)c2ccccc2)C(=O)O)cc1 [Compound 93] | 10 to 1000 nM
6 | CNCCCCCC(=O)N[C@H](CCCNC(=N)N)C(=O)Nc1ccc(C[C@H](NC(=O)C2CCCN2S(=O)(=O)c2ccccc2)C(=O)O)cc1 (stereo partly drawn) [Compound 198] | 10 to 1000 nM
7 | N=C(N)NCCOCC(=O)Nc1ccc(C[C@H](NC(=O)[C@@H]2CCCN2S(=O)(=O)c2ccccc2)C(=O)O)cc1 [Compound 204, (S)-3-(4-(2-(2-guanidinoethoxy)acetamido)phenyl)-2-((S)-1-(phenylsulfonyl)pyrrolidine-2-carboxamido)propanoic acid] | 10 to 1000 nM
8 | N=C(N)Nc1cccc(CC(=O)Nc2ccc(C[C@H](NC(=O)[C@@H]3CCCN3S(=O)(=O)c3ccccc3)C(=O)O)cc2)c1 [Compound 205, (S)-3-(4-(2-(3-guanidinophenyl)acetamido)phenyl)-2-((S)-1-(phenylsulfonyl)pyrrolidine-2-carboxamido)propanoic acid] | 10 to 1000 nM
9 | Cc1ccc(NCCCC(=O)Nc2ccc(C[C@H](NC(=O)[C@@H]3CCCN3S(=O)(=O)c3ccccc3)C(=O)O)cc2)nc1 [Compound 206, (S)-3-(4-(4-((5-methylpyridin-2-yl)amino)butanamido)phenyl)-2-((S)-1-(phenylsulfonyl)pyrrolidine-2-carboxamido)propanoic acid] | 10 to 1000 nM
10 | N=C(N)NCCCC(=O)Nc1ccc(C[C@H](NC(=O)[C@@H]2CCCCN2S(=O)(=O)c2ccccc2)C(=O)O)cc1 [Compound 212] | 10 to 1000 nM
11 | O=C(CCCNc1ccccn1)Nc1ccc(C[C@H](NC(=O)[C@@H]2CCCCN2S(=O)(=O)c2ccccc2)C(=O)O)cc1 [Compound 213] | < 10 nM
12 | Cc1cc(C)cc(S(=O)(=O)N2CCC[C@H]2C(=O)N[C@@H](Cc2ccc(NC(=O)CCCNC(=N)N)cc2)C(=O)O)c1 [Compound 214] | 10 to 1000 nM

The next lines start with the values.

Row | IC50 | SMILES
13 | < 10 nM | CNCCCCCC(=O)N[C@H](CCCNC(=N)N)C(=O)Nc1ccc(C[C@H](NC(=O)[C@@H]2CCCN2S(=O)(=O)c2ccccc2)C(=O)O)cc1 (stereo in doubt) [Compound 199]
14 | 10 to 1000 nM | NCCC(=O)Nc1ccc(C[C@H](NC(=O)[C@@H]2CCCN2S(=O)(=O)c2ccccc2)C(=O)O)cc1 [Compound 2, (S)-3-(4-(3-aminopropanamido)phenyl)-2-((S)-1-(phenylsulfonyl)pyrrolidine-2-carboxamido)propanoic acid]
15 | 10 to 1000 nM | NCCCC(=O)Nc1ccc(C[C@H](NC(=O)[C@@H]2CCCN2S(=O)(=O)c2ccccc2)C(=O)O)cc1 [Compound 3, (S)-3-(4-(4-aminobutanamido)phenyl)-2-((S)-1-(phenylsulfonyl)pyrrolidine-2-carboxamido)propanoic acid]
16 | 10 to 1000 nM | N=C(N)NCC(=O)Nc1ccc(C[C@H](NC(=O)[C@@H]2CCCN2S(=O)(=O)c2ccccc2)C(=O)O)cc1 [Compound 4, (S)-3-(4-(2-guanidinoacetamido)phenyl)-2-((S)-1-(phenylsulfonyl)pyrrolidine-2-carboxamido)propanoic acid]
17 | < 10 nM | N=C(N)NCCC(=O)Nc1ccc(C[C@H](NC(=O)[C@@H]2CCCN2S(=O)(=O)c2ccccc2)C(=O)O)cc1 [Compound 5, (S)-3-(4-(3-guanidinopropanamido)phenyl)-2-((S)-1-(phenylsulfonyl)pyrrolidine-2-carboxamido)propanoic acid]
18 | < 10 nM | NCCCC(=O)Nc1ccc(C[C@H](NC(=O)[C@@H]2CCCN2S(=O)(=O)c2ccccc2)C(=O)O)cc1 [Compound 6, (S)-3-(4-(4-aminobutanamido)phenyl)-2-((S)-1-(phenylsulfonyl)pyrrolidine-2-carboxamido)propanoic acid]
19 | < 10 nM | N=C(N)NCCCCC(=O)Nc1ccc(C[C@H](NC(=O)[C@@H]2CCCN2S(=O)(=O)c2ccccc2)C(=O)O)cc1 [Compound 8, (S)-3-(4-(5-guanidinopentanamido)phenyl)-2-((S)-1-(phenylsulfonyl)pyrrolidine-2-carboxamido)propanoic acid]
20 | 1000 to 10000 nM | NCCCCCC(=O)Nc1ccc(C[C@H](NC(=O)[C@@H]2CCCN2S(=O)(=O)c2ccccc2)C(=O)O)cc1 [Compound 9, (S)-3-(4-(6-aminohexanamido)phenyl)-2-((S)-1-(phenylsulfonyl)pyrrolidine-2-carboxamido)propanoic acid]
21 | 10 to 1000 nM | N=C(N)NCCCCCC(=O)Nc1ccc(C[C@H](NC(=O)[C@@H]2CCCN2S(=O)(=O)c2ccccc2)C(=O)O)cc1 [Compound 10, (S)-3-(4-(6-guanidinohexanamido)phenyl)-2-((S)-1-(phenylsulfonyl)pyrrolidine-2-carboxamido)propanoic acid]
22 | 10 to 1000 nM | O=C(CCCCNC1=NCCN1)Nc1ccc(C[C@H](NC(=O)[C@@H]2CCCN2S(=O)(=O)c2ccccc2)C(=O)O)cc1 [Compound 11, (S)-3-(4-(5-((4,5-dihydro-1H-imidazol-2-yl)amino)pentanamido)phenyl)-2-((S)-1-(phenylsulfonyl)pyrrolidine-2-carboxamido)propanoic acid]
23 | 10 to 1000 nM | O=C(CCCCNC1=NCCCN1)Nc1ccc(C[C@H](NC(=O)[C@@H]2CCCN2S(=O)(=O)c2ccccc2)C(=O)O)cc1 [Compound 60]
24 | 10 to 1000 nM | N=C(N)Nc1ccc(C(=O)Nc2ccc(C[C@H](NC(=O)[C@@H]3CCCN3S(=O)(=O)c3ccccc3)C(=O)O)cc2)cc1 [Compound 200, (S)-3-(4-(4-guanidinobenzamido)phenyl)-2-((S)-1-(phenylsulfonyl)pyrrolidine-2-carboxamido)propanoic acid]
25 | < 10 nM | N=C(N)Nc1cccc(C(=O)Nc2ccc(C[C@H](NC(=O)[C@@H]3CCCN3S(=O)(=O)c3ccccc3)C(=O)O)cc2)c1 [Compound 201, (S)-3-(4-(3-guanidinobenzamido)phenyl)-2-((S)-1-(phenylsulfonyl)pyrrolidine-2-carboxamido)propanoic acid]
26 | 10 to 1000 nM | Cc1cccc(NCCCC(=O)Nc2ccc(C[C@H](NC(=O)[C@@H]3CCCN3S(=O)(=O)c3ccccc3)C(=O)O)cc2)n1 [Compound 207, (S)-3-(4-(4-((6-methylpyridin-2-yl)amino)butanamido)phenyl)-2-((S)-1-(phenylsulfonyl)pyrrolidine-2-carboxamido)propanoic acid]
27 | 10 to 1000 nM | Cc1cnc(NCCCC(=O)Nc2ccc(C[C@H](NC(=O)[C@@H]3CCCN3S(=O)(=O)c3ccccc3)C(=O)O)cc2)c(C)c1 [Compound 210, (S)-3-(4-(4-((3,5-dimethylpyridin-2-yl)amino)butanamido)phenyl)-2-((S)-1-(phenylsulfonyl)pyrrolidine-2-carboxamido)propanoic acid]
28 | < 10 nM | CN(C)c1cccc2c(S(=O)(=O)N3CCCC3C(=O)N[C@@H](Cc3ccc(NC(=O)CCCCNC(=N)N)cc3)C(=O)O)cccc12 (stereo partly drawn) [Compound 215]

Same assay, conditions: preliminary studies; highly selective manner

Row | SMILES | concentration that inhibits cell adhesion by αvβ1 integrin
29 | N=C(N)NCCCCC(=O)Nc1ccc(C[C@H](NC(=O)[C@@H]2CCCN2S(=O)(=O)c2ccccc2)C(=O)O)cc1 [Compound 8, (S)-3-(4-(5-guanidinopentanamido)phenyl)-2-((S)-1-(phenylsulfonyl)pyrrolidine-2-carboxamido)propanoic acid] | < 100 pM

Test system: TGFβ activation by cells expressing αvβ1
Assay: TGFβ activation assay (co-culture with PAI1-luciferase TGFβ reporter cells)
Format: cell-based
Conditions: not given
Procedure: Test cells were plated at 50K cells/well in 96-well plates together with mink lung epithelial cells expressing firefly luciferase downstream of the TGFβ sensitive portion of the plasminogen activator inhibitor 1 promoter (15K cells/well). Cells were co-cultured for 16 hours and TGFβ activity was calculated by measurement of luminescencein the presence and absence of TGFβ-blocking antibody, 1D11.

Row | SMILES | TGFβ activation by cultured liver myofibroblasts
30 | N=C(N)NCCCCC(=O)Nc1ccc(C[C@H](NC(=O)[C@@H]2CCCN2S(=O)(=O)c2ccccc2)C(=O)O)cc1 [Compound 8, (S)-3-(4-(5-guanidinopentanamido)phenyl)-2-((S)-1-(phenylsulfonyl)pyrrolidine-2-carboxamido)propanoic acid] | inhibits TGFβ activation
